From patent US20130344055A1, “ANTIMICROBIAL AGENTS” (priority 2010, published 2013)
Read-outs that look alike come from different tables or passages of the source.

B1: LysK: endolysin LysK (protein)
chain: MAKTQAEINKRLDAYAKGTVDSPYRVKKATSYDPSFGVMEAGAIDADGYYHAQCQDLITDYVLWLTDNKVRTWGNAKDQIKQSYGTGFKIHENKPSTVPKKGWIAVFTSGSYEQWGHIGIVYDGGNTSTFTILEQNWNGYANKKPTKRVDNYYGLTHFIEIPVKAGTTVKKETAKKSASKTPAPKKKATLKVSKNHINYTMDKRGKKPEGMVIHNDAGRSSGQQYENSLANAGYARYANGIAHYYGSEGYVWEAIDAKNQIAWHTGDGTGANSGNFRFAGIEVCQSMSASDAQFLKNEQAVFQFTAEKFKEWGLTPNRKTVRLHMEFVPTACPHRSMVLHTGFNPVTQGRPSQAIMNKLKDYFIKQIKNYMDKGTSSSTVVKDGKTSSASTPATRPVTGSWKKNQYGTWYKPENATFVNGNQPIVTRIGSPFLNAPVGGNLPAGATIVYDEVCIQAGHIWIGYNAYNGNRVYCPVRTCQGVPPNQIPGVAWGVFK
modifications: Staphylococcus aureus Phage K

Key:
[1] = system: E. coli XL1 blue; format: cell-based; settings: for Average log reduction, E. coli. X1-1: Table 9, with EDTA 0.5 mM
Method: (§1) . After incubation cell suspensions and as a control untreated bacterial cells without any added modified OBPgpLYS variant were diluted three times (respectively 10^5-10^4-10^3 cells/ml) in 1× concentrated PBS buffer and 100 μl of each dilution was plated out on LB-medium. […] All samples were replicated in threefold. Averages +/− standard deviations are represented.
(§2) The production of OBPgpLys with two peptide stretches is described above in Example 1. Moreover, the purification of the fusion proteins and the antimicrobial activity assay was performed as described already in Example 1.

[2] = system: P. putida G1; assay: In vitro antibacterial activity (log reduction) of modified OBPgpLys fusion variants; format: cell-based; settings: 10^6 cells/ml, 30 minutes at RT
Method: (§3) Exponential growing Gram-negative bacterial cells (OD600 nm=0.6) were 100-fold diluted to a final density of about 10^6 cells/ml in 5 mM HEPES pH 7.4 and incubated for 30 minutes at room temperature without shaking with the different modified OBPgpLYS variants (in Elution Buffer in an end concentration of 1500 nM). After incubation cell suspensions and as a control untreated bacterial cells without any added modified OBPgpLYS variant were diluted three times (respectively 10^5-10^4-10^3 cells/ml) in 1× concentrated PBS buffer and 100 μl of each dilution was plated out on LB-medium. […] All samples were replicated in threefold. Averages +/− standard deviations are represented.
as §2

[3] = system: P. aeruginosa PAO1p; assay: as above; format: cell-based; settings: 10^6 cells/ml, 30 minutes at RT
Method: as §3, §2

[4] = system: S. typhimurium LT2; assay: as above; format: cell-based, Salmonella typhimurium; settings: 10^6 cells/ml, 30 minutes at RT; for Average log reduction, Salmonella typhimurium LT2: Table 9, with EDTA 0.5 mM; for Average log reduction, S. typhimurium LT2: 1500 nM protein
Method: as §1, with “After” for “. After”
as §2

[5] = system: Staphylococcus bacteria; assay: In vitro antibacterial activity of Lysostaphin and LysK fusion variants; format: cell-based; settings: with EDTA 0.5 mM, 10^6 cells/ml, 30 minutes at RT
[6] = with EDTA 0.5 mM (B), 1500 nM protein
[7] = 10^6 cells/ml, 30 minutes at RT
[8] = with EDTA 0.5 mM (B), 1500 nM protein, 10^6 cells/ml, 30 minutes at RT
[9] = without EDTA (A), 1500 nM protein, 10^6 cells/ml, 30 minutes at RT
[10] = without EDTA (A), 1500 nM protein

Molecule | Average log reduction, E. coli XL1 blue [1] | Average log reduction, P. putida G1 [2, 6] | Average log reduction, P. aeruginosa PAO1p [3, 6] | Average log reduction, Salmonella typhimurium LT2 [4] | Average log reduction, S. typhimurium LT2 ([4]; with EDTA 0.5 mM (B)) | Average log reduction, S. typhimurium LT2 ([4]; without EDTA (A)) | Average log reduction, E. coli. X1-1 [1, 7] | Average log reduction, E. coli XL1 blue [1, 8] | Average log reduction, E. coli XL1 blue [1, 9] | Average log reduction, P. putida G1 ([2]; Table 9, with EDTA 0.5 mM) | Average log reduction, P. putida G1 [2, 10] | Average log reduction, P. aeruginosa PAO1p ([3]; Table 9, with EDTA 0.5 mM) | Average log reduction, P. aeruginosa PAO1p [3, 10] | Average log reduction, Staphylococcus ([5]; Lysostaphin variants) | Average log reduction, Staphylococcus ([5]; LysK variants)
O=C(O)CN(CCN(CC(=O)O)CC(=O)O)CC(=O)O [EDTA, reference compound] | 0.85 log | 0.65 log | 1.82 log |  |  |  |  |  |  |  |  |  |  |  | 
Lycotoxin1-PK-OBPgpLYS: antimicrobial peptide Lycotoxin 1, then PK, N-terminally fused to endolysin OBPgpLys |  | 2.26 log | 3.73 log | + (+: 1 log) | 0.29 log | 0.17 log | ++ (++: 2-3 log) | 0.90 log | 0.41 log | ++ (++: 2-3 log) | 0.56 log | +++ (+++: 4 or more logs) | 0.08 log |  | 
Lysostaphin-Sarcotoxin IA: Lysostaphin fusion variant with one peptide stretch, Sarcotoxin IA, C-terminal |  |  |  |  |  |  |  |  |  |  |  |  |  | ++ (++: 2-3 log) | 
Lysostaphin: bacteriocin degrading Staphylococcus cell walls |  |  |  |  |  |  |  |  |  |  |  |  |  | + (+: 1 log) | 
OBPgpLYS: endolysin of Pseudomonas putida phage OBP, without peptide stretch |  |  |  | + (+: 1 log) |  |  | + (+: 1 log) |  |  | + (+: 1 log) |  | + (+: 1 log) |  |  | 
PK-Pentapeptide-OBPgplys: polycationic peptide PK, then hydrophobic pentapeptide FFVAP, N-terminally fused to endolysin OBPgpLys |  | 3.24 log | 4.00 log | + (+: 1 log) | 0.42 log | 0.22 log | ++ (++: 2-3 log) | 2.12 log | 1.69 log | +++ (+++: 4 or more logs) | 0.80 log | +++ (+++: 4 or more logs) | 0.95 log |  | 
PK-α4-OBPgpLys: polycationic peptide PK, then α4-helix of T4-lysozyme, N-terminally fused to endolysin OBPgpLys |  | 2.97 log | 5.07 log | + (+: 1 log) | 0.29 log | 0.23 log | ++ (++: 2-3 log) | 0.86 log | 0.54 log | ++ (++: 2-3 log) | 0.01 log | +++ (+++: 4 or more logs) | 1.10 log |  | 
Parasin1-PK-OBPgpLys: antimicrobial peptide Parasin 1, then PK, N-terminally fused to endolysin OBPgpLys |  | 2.32 log | 4.92 log | + (+: 1 log) | 0.28 log | 0.27 log | ++ (++: 2-3 log) | 1.00 log | 0.70 log | ++ (++: 2-3 log) | 0.16 log | +++ (+++: 4 or more logs) | 0.75 log |  | 
Sarcotoxin IA-Lysostaphin: Lysostaphin fusion variant with one peptide stretch, Sarcotoxin IA, N-terminal |  |  |  |  |  |  |  |  |  |  |  |  |  | ++ (++: 2-3 log) | 
Walmagh1-PK-OBPgpLYS: hydrophobic peptide Walmagh 1, then PK, N-terminally fused to endolysin OBPgpLys |  | 3.22 log | 3.66 log |  | 0.17 log | 0.12 log |  | 1.70 log | 1.46 log |  | 0.29 log |  | 0.20 log |  | 
Walmagh2-PK-OBPgplys: amphiphatic peptide Walmagh 2, then PK, N-terminally fused to endolysin OBPgpLys |  | 2.60 log | 3.91 log | + (+: 1 log) | 0.25 log | 0.17 log | ++ (++: 2-3 log) | 1.86 log | 1.68 log | ++ (++: 2-3 log) | 0.00 log | +++ (+++: 4 or more logs) | 0.57 log |  | 
α4-PK-OBPgpLys: α4-helix of T4-lysozyme, then polycationic peptide PK, N-terminally fused to endolysin OBPgpLys |  | 2.98 log | 5.23 log | + (+: 1 log) | 0.35 log | 0.22 log | + (+: 1 log) | 0.58 log | 0.55 log | ++ (++: 2-3 log) | 0.02 log | +++ (+++: 4 or more logs) | 0.59 log |  | 
B1 |  |  |  |  |  |  |  |  |  |  |  |  |  |  | + (+: 1 log)
